# Laboratory results published in patent US8349883B2, “Hydroxamate-based inhibitors of deacetylases B” (Novartis AG, priority 2008, dated 2013).
# What was measured:
# [1] = target: T1, HDAC-1 (Homo sapiens, UniProt Q13547); assay: HDAC inhibition assay (purified GST-HDAC protein); assay type: biochemical
# T1 construct: made in house; host or cells: Sf9 or Sf21 insect cells (baculovirus, donor vector pFB-GSTX3)
# From the text: The baculovirus donor vector pFB-GSTX3 was used to generate a recombinant baculovirus that can express the HDAC polypeptide. Transfer vectors containing the HDAC coding region were transfected into the DH10Bac cell line (GIBCO) and plated on selective agar plates. Colonies without insertion of the fusion sequence into the viral genome (carried by the bacteria) were blue. Single, white colonies were picked and viral DNAs (bacmid) were isolated from the bacteria by standard plasmid purification procedures. Sf9 cells or Sf21 (American Type Culture Collection) cells were then transfected in […] flasks with the viral DNA using Cellfectin reagent.
# Virus-containing media was collected from the transfected cell culture and used for infection to increase its titer. Virus-containing media obtained after two rounds of infection was used for large-scale protein expression. For large-scale protein expression 100 cm^2 round tissue culture plates were seeded with 5×10^7 cells/plate and infected with 1 mL of virus-containing media (at an approximately MOI of 5). After 3 days, the cells were scraped off the plate and centrifuged at 500 rpm for 5 minutes. Cell pellets from 10-20, 100 cm^2 plates, were re-suspended in 50 mL of ice-cold lysis buffer (25 mM tris-HCl, pH 7.5, 2 mM EDTA, 1% NP-40, 1 mM DTT, 1 mM P MSF). The cells were stirred on ice for 15 minutes and then centrifuged at 5,000 rpms for 20 minutes.
# The centrifuged cell lysate was loaded onto a 2 mL glutathione-sepharose column (Pharmacia) and was washed thrice with 10 mL of 25 mM tris-HCl, pH 7.5, 2 mM EDTA, 1 mM DTT, 200 mM NaCl. The GST-tagged proteins were then eluted by 10 applications (1 mL each) of 25 mM tris-HCl, pH 7.5, 10 mM reduced-glutathione, 100 mM NaCl, 1 mM DTT, 10% glycerol and stored at −70° C.
# HDAC assays with purified GST-HDAC protein were carried out in a final volume of 30 μL containing 15 ng of GST-HDAC protein, 20 mM tris-HCl, pH 7.5, 1 mM MnCl2, 10 mM MgCl2, 1 mM DTT, 3 μg/mL poly(Glu,Tyr) 4:1, 1% DMSO, 2.0 μM ATP (γ-[^33P]-ATP 0.1 μCi). The activity was assayed in the presence or absence of inhibitors. The assay was carried out in 96-well plates at ambient temperature for 15 minutes under conditions described below and terminated by the addition of 20 μL of 125 mM EDTA. Subsequently, 40 μL of the reaction mixture were transferred onto EMMOBILON-PVDF membrane (Millipore) previously soaked for 5 minutes with methanol, rinsed with water, then soaked for 5 minutes with 0.5% H3PO4 and mounted on vacuum manifold with disconnected vacuum source. After spotting all samples, a vacuum was connected and each well rinsed with 200 μL 0.5% H3PO4. Membranes were removed and washed four times on a shaker with 1.0% H3PO4, once with ethanol. Membranes were counted after drying at ambient temperature, mounting in Packard TopCount 96-well frame, and addition of 10 μL/well of MICROSCINT™ (Packard). IC50 values were calculated by linear regression analysis of the percentage inhibition of each compound in duplicate, at 4 concentrations (usually 0.01, 0.1, 1 and 10 μM).
# • Input: 3×4 μL stopped assay on IMMOBILON membrane, not washed • Background (3 wells): assay with H2O instead of enzyme • Positive control (4 wells): 3% DMSO instead of compound • Bath control (1 well): no reaction mix
# IC50 values were calculated by logarithmic regression analysis of the percentage inhibition of each compound at 4 concentrations (usually 3- or 10-fold dilution series starting at 10 μM). In each experiment, the actual inhibition by reference compound was used for normalization of IC50 values to the basis of an average value of the reference inhibitor: Normalized IC50=measured IC50 average ref IC50/measured ref IC50
# Example: Reference inhibitor in experiment 0.4 μM, average 0.3 μM, Test compound in experiment 1.0 μM, normalization: 0.3/0.4=0.75 μM
# For example, known HDAC inhibitors or a synthetic derivative thereof may be used as reference compounds.
# [2] = tested on: HCT116; assay: HCT116 IC50; assay type: cell-based; conditions: Homo sapiens, HCT-116
# T1 sequence (Q13547 whole entry, species assumed): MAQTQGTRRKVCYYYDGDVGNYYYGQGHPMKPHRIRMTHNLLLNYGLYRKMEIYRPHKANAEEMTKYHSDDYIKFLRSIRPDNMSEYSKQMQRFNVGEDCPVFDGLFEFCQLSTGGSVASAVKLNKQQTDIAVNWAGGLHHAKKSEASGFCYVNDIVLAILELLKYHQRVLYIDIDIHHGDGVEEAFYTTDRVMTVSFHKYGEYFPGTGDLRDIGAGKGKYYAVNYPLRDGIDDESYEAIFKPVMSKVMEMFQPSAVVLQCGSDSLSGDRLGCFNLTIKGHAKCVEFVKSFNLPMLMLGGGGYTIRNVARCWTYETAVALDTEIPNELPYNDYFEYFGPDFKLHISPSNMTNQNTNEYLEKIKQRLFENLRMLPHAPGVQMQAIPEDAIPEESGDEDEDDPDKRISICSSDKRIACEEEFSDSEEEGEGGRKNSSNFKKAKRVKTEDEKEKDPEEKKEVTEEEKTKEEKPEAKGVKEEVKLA
IC50 [1],IC50 [2],SMILES
4 nM,9 nM,"O=C(/C=C/c1ccc([C@@H]2CCCCN2CCc2cnn3ccccc23)cc1)NO [Compound 85, (E)-N-Hydroxy-3-{4-[(S)-1-(2-pyrazolo[1,5-a]pyridin-3-yl-ethyl)-piperidin-2-yl]-phenyl}-acrylamide]"
7 nM,0.5 nM,"CC(C)(C)c1[nH]c2cc([N+](=O)[O-])ccc2c1CCN1CCCC1c1ccc(/C=C/C(=O)NO)cc1 (centres unmarked) [Compound 9, (E)-3-(4-{1-[2-(2-tert-Butyl-6-nitro-1H-indol-3-yl)-ethyl]-pyrrolidin-2-yl}-phenyl)-N-hydroxy-acrylamide]"
35 nM,58 nM,"Cc1[nH]c2ccccc2c1CCN1CCN(C(=O)OC(C)(C)C)CC1c1ccc(/C=C/C(=O)NO)cc1 (centres unmarked) [Compound 87, 3-[4-((E)-2-Hydroxycarbamoyl-vinyl)-phenyl]-4-[2-(2-methyl-1H-indol-3-yl)-ethyl]-piperazine-1-carboxylic acid tert-butyl ester]"
1.7 nM,1.7 nM,"CCCCn1nc(C)c(CCN2CCC[C@H]2c2ccc(/C=C/C(=O)NO)cc2)c1C [Compound 97, (E)-3-(4-{(S)-1-[2-(1-Butyl-3,5-dimethyl-1H-pyrazol-4-yl)-ethyl]-pyrrolidin-2-yl}-phenyl)-N-hydroxy-acrylamide]"
1.7 nM,5 nM,"Cc1noc(-c2ccccc2)c1CCN1CCC[C@H]1c1ccc(/C=C/C(=O)NO)cc1 [Compound 56, (E)-N-Hydroxy-3-(4-{(S)-1-[2-(3-methyl-5-phenyl-isoxazol-4-yl)-ethyl]-pyrrolidin-2-yl}-phenyl)-acrylamide]"
2.7 nM,4.3 nM,"CC(C)(C)c1[nH]c2ncccc2c1CCN1CCC[C@H]1c1ccc(/C=C/C(=O)NO)cc1 [Compound 52, (E)-3-(4-{(S)-1-[2-(2-tert-Butyl-1H-pyrrolo[2,3-b]pyridin-3-yl)-ethyl]-pyrrolidin-2-yl}-phenyl)-N-hydroxy-acrylamide]"
19 nM,97 nM,"O=C(/C=C/c1ccc(C2CCCN2CCc2ccc(Cl)c(Cl)c2)cc1)NO (centres unmarked) [Compound 23, (E)-3-(4-{1-[2-(3,4-Dichloro-phenyl)-ethyl]-pyrrolidin-2-yl}-phenyl)-N-hydroxy-acrylamide]"
2 nM,2 nM,"Cc1nn(CC2CC2)c(C)c1CCN1CCC[C@H]1c1ccc(/C=C/C(=O)NO)cc1 [Compound 62, (E)-3-(4-{(S)-1-[2-(1-Cyclopropylmethyl-3,5-dimethyl-1H-pyrazol-4-yl)-ethyl]-pyrrolidin-2-yl}-phenyl)-N-hydroxy-acrylamide]"
1.6 nM,3 nM,"Cc1n[nH]c(C)c1CCN1CCC[C@H]1c1ccc(/C=C/C(=O)NO)cc1 [Compound 95, (E)-3-(4-{(S)-1-[2-(3,5-Dimethyl-1H-pyrazol-4-yl)-ethyl]-pyrrolidin-2-yl}-phenyl)-N-hydroxy-acrylamide]"
7 nM,29 nM,"O=C(/C=C/c1ccc(C2CCCN2CCc2ccc(Cl)cc2Cl)cc1)NO (centres unmarked) [Compound 26, (E)-3-(4-{1-[2-(2,4-Dichloro-phenyl)-ethyl]-pyrrolidin-2-yl}-phenyl)-N-hydroxy-acrylamide]"
71 nM,230 nM,"O=C(/C=C/c1ccc([C@@H]2CCCN2CCn2ccc(C(F)(F)F)n2)cc1)NO [Compound 73, (E)-N-Hydroxy-3-(4-{(S)-1-[2-(3-trifluoromethyl-pyrazol-1-yl)-ethyl]-pyrrolidin-2-yl}-phenyl)-acrylamide]"
1.7 nM,2 nM,"CCn1nc(C)c(CCN2CCC[C@H]2c2ccc(/C=C/C(=O)NO)cc2)c1C [Compound 96, (E)-3-(4-{(S)-1-[2-(1-Ethyl-3,5-dimethyl-1H-pyrazol-4-yl)-ethyl]-pyrrolidin-2-yl}-phenyl)-N-hydroxy-acrylamide]"
42 nM,180 nM,"O=C(/C=C/c1ccc([C@@H]2CCCN2CCn2cccn2)cc1)NO [Compound 63, (E)-N-Hydroxy-3-{4-[(S)-1-(2-pyrazol-1-yl-ethyl)-pyrrolidin-2-yl]-phenyl}-acrylamide]"
4 nM,2 nM,"O=C(/C=C/c1ccc([C@@H]2CCCN2CCc2cnn3ccccc23)c(F)c1)NO [Compound 91, (E)-3-{3-Fluoro-4-[(S)-1-(2-pyrazolo[1,5-a]pyridin-3-yl-ethyl)-pyrrolidin-2-yl]-phenyl}-N-hydroxy-acrylamide]"
62 nM,190 nM,"Cc1cnn(CCN2CCC[C@H]2c2ccc(/C=C/C(=O)NO)cc2)c1 [Compound 64, (E)-N-Hydroxy-3-(4-{(S)-1-[2-(4-methyl-pyrazol-1-yl)-ethyl]-pyrrolidin-2-yl}-phenyl)-acrylamide]"
5 nM,7 nM,"O=C(/C=C/c1ccc(C2CCCN2CCc2ccccc2Cl)cc1)NO (centres unmarked) [Compound 25, (E)-3-(4-{1-[2-(2-Chloro-phenyl)-ethyl]-pyrrolidin-2-yl}-phenyl)-N-hydroxy-acrylamide]"
4 nM,96 nM,"Cc1[nH]c2ccccc2c1CC(=O)N1CCCC1c1ccc(/C=C/C(=O)NO)cc1 (centres unmarked) [Compound 12, (E)-N-Hydroxy-3-(4-{1-[2-(2-methyl-1H-indol-3-yl)-acetyl]-pyrrolidin-2-yl}-phenyl)-acrylamide]"
10 nM,50 nM,"O=C(/C=C/c1ccc(C2CCCN2CCCc2c[nH]c3ccccc23)cc1)NO (centres unmarked) [Compound 2, (E)-N-Hydroxy-3-(4-{1-[3-(1H-indol-3-yl)-propyl]-pyrrolidin-2-yl}-phenyl)-acrylamide]"
10 nM,10 nM,"Cc1cc2ccccc2n1CCN1CCCC1c1ccc(/C=C/C(=O)NO)cc1 (centres unmarked) [Compound 4, (E)-N-Hydroxy-3-(4-{1-[2-(2-methyl-indol-1-yl)-ethyl]-pyrrolidin-2-yl}-phenyl)-acrylamide]"
155 nM,–,"Cc1n[nH]c(C)c1CCN1CCC[C@H]1c1ccc(CCC(=O)NO)cc1 [Compound 119, 3-(4-{(S)-1-[2-(3,5-Dimethyl-1H-pyrazol-4-yl)-ethyl]-pyrrolidin-2-yl}-phenyl)-N-hydroxy-propionamide]"
12 nM,–,"Cc1n[nH]c(C)c1CCN1CCC[C@@H]1c1ccc(/C=C/C(=O)NO)cc1 [Compound 117, (E)-3-(4-{(R)-1-[2-(3,5-Dimethyl-1H-pyrazol-4-yl)-ethyl]-pyrrolidin-2-yl}-phenyl)-N-hydroxy-acrylamide]"
75 nM,–,"CC(C)(O)c1nn2ccccc2c1CCN1CCC[C@H]1c1ccc(CCC(=O)NO)cc1 [Compound 113, N-Hydroxy-3-[4-((S)-1-{2-[2-(1-hydroxy-1-methyl-ethyl)-pyrazolo[1,5-a]pyridin-3-yl]-ethyl}-pyrrolidin-2-yl)-phenyl]-propionamide]"
3.2 nM,–,"Cc1nn(CC2CCOCC2)c(C)c1CCN1CCC[C@H]1c1ccc(/C=C/C(=O)NO)cc1 [Compound 109, (E)-3-[4-((S)-1-{2-[3,5-Dimethyl-1-(tetrahydro-pyran-4-ylmethyl)-1H-pyrazol-4-yl]-ethyl}-pyrrolidin-2-yl)-phenyl]-N-hydroxy-acrylamide]"

SMILES,IC50 [1],IC50 [2]
"Cc1[nH]c2ccccc2c1CCN1CCNCC1c1ccc(/C=C/C(=O)NO)cc1 (centres unmarked) [Compound 89, (E)-N-Hydroxy-3-(4-{1-[2-(2-methyl-1H-indol-3-yl)-ethyl]-piperazin-2-yl}-phenyl)-acrylamide]",7 nM,200 nM
